Measured values: paper PMC9486168, “Protein-protein interaction-based high throughput screening for adenylyl cyclase 1 inhibitors: Design, implementation, and discovery of a novel chemotype” (Frontiers in Pharmacology, 2022)
Like-named read-outs stand apart in the source and are kept apart here.

Assays:
AC8-C2b/CaM = target: T1, AC8-C2b/CaM (Homo sapiens, UniProt P0DP23); experiment: AC8-C2b/CaM FP counterscreen assay; format: binding; details: for Ki: Cheng-Prusoff from FP IC50 and Kd, n/i given where none; for Ki ratio (AC8-C2b/AC1): ratio >1: more potent in AC1/CaM FP;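 as to all read-outs here: fluorescence polarization of AC peptide binding to GST-CaM in HEPES buffer with KCl and 50 µM CaCl2, compound preincubated 30 min with GST-CaM, DMSO and calmidazolium as controls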
T1 construct: made in house; host or cells: E. coli BL21-CodonPlus (DE3)-RIPL

AC1/CaM PPI = target: T2, AC1/CaM PPI (Homo sapiens, UniProt P0DP23); experiment: AC1/CaM NanoBiT assay in HEK293T cells; format: cell-based; details: HEK293T, thapsigargin-stimulated, AUC; read-out: Nanobit: AC1-CaM IC50 (μM ± SEM)
T2 construct: human AC1 (hAC1) residues 1–1,118 were cloned; The hCaM residues 1–149, residues 1–1,248 of rat AC8 (rAC8); expressed in transfected cells; host or cells: HEK293T, transient transfection

AC1-C1b/CaM = target: T3, AC1-C1b/CaM (Homo sapiens, UniProt P0DP23); experiment: AC1-C1b/CaM fluorescence polarization (FP) assay; format: binding; details: for IC50: 100 nM AC1-C1b, 100 nM GST-CaM, 95% CI in brackets; for Ki: Cheng-Prusoff from FP IC50 and Kd; for AC1-CaM FP % inhib: relative to 100 μM CDZ (100% inhibition), highest concentration tested
T3 construct: made in house; host or cells: E. coli BL21-CodonPlus (DE3)-RIPL

AC8/CaM PPI = target: T4, AC8/CaM PPI (Homo sapiens, UniProt P0DP23); experiment: AC8/CaM NanoBiT assay in HEK293T cells; format: cell-based, rat; details: for IC50: HEK293T, thapsigargin-stimulated, AUC, read-out: Nanobit: AC8-CaM IC50 (μM ± SEM)
T4 construct: confirmed as an AC1/AC8 non-selective hit against full-length AC1- and AC8-CaM in the NanoBiT assay; The hCaM residues 1–149, residues 1–1,248 of rat AC8 (rAC8); expressed in transfected cells; host or cells: HEK293T, transient transfection

AC8-Nt/CaM = target: T5, AC8-Nt/CaM (Homo sapiens, UniProt P0DP23); experiment: AC8-Nt/CaM FP counterscreen assay; format: binding; details: for Ki: Cheng-Prusoff from FP IC50 and Kd, n/i given where none; for Ki ratio (AC8 NT/AC1): ratio >1: more potent in AC1/CaM FP;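 as to all read-outs here: fluorescence polarization of AC peptide binding GST-CaM in HEPES buffer with CaCl2, compound preincubated with CaM 30 min, peptide read after 2 h at room temperature in dark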
T5 construct: made in house; host or cells: E. coli BL21-CodonPlus (DE3)-RIPL

[1] = CellTiter-Glo 2.0 cell viability assay; format: cell-based; details: human, HEK293T cells, pH 7.4; at the compound's AC1/CaM NanoBiT IC50 concentration; read-out: % Viable Cells at AC1 IC50;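 also: luminescence read-out after 30 min compound exposure at 37 °C in HEPES-buffered HBSS, scaled to vehicle-treated cells as 100% and cell-free buffer wells as 0%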
HEK293T cells = experiment: CellTiter-Glo 2.0 cell viability assay; format: cell-based; details: for decrease in cell viability at AC1/CaM IC50: at AC1/CaM NanoBiT IC50;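 as to all read-outs here: luminescence read-out after 30 min compound exposure at 37 °C in HEPES-buffered HBSS, scaled to vehicle-treated cells as 100% and cell-free buffer wells as 0%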
AC1 = target: T6, AC1 (Homo sapiens, UniProt Q08828); experiment: cAMP accumulation assay, AC1-HEK Δ3/6 KO cells; format: cell-based
T6 construct: expressed in transfected cells
T6 sequence (Q08828 whole entry): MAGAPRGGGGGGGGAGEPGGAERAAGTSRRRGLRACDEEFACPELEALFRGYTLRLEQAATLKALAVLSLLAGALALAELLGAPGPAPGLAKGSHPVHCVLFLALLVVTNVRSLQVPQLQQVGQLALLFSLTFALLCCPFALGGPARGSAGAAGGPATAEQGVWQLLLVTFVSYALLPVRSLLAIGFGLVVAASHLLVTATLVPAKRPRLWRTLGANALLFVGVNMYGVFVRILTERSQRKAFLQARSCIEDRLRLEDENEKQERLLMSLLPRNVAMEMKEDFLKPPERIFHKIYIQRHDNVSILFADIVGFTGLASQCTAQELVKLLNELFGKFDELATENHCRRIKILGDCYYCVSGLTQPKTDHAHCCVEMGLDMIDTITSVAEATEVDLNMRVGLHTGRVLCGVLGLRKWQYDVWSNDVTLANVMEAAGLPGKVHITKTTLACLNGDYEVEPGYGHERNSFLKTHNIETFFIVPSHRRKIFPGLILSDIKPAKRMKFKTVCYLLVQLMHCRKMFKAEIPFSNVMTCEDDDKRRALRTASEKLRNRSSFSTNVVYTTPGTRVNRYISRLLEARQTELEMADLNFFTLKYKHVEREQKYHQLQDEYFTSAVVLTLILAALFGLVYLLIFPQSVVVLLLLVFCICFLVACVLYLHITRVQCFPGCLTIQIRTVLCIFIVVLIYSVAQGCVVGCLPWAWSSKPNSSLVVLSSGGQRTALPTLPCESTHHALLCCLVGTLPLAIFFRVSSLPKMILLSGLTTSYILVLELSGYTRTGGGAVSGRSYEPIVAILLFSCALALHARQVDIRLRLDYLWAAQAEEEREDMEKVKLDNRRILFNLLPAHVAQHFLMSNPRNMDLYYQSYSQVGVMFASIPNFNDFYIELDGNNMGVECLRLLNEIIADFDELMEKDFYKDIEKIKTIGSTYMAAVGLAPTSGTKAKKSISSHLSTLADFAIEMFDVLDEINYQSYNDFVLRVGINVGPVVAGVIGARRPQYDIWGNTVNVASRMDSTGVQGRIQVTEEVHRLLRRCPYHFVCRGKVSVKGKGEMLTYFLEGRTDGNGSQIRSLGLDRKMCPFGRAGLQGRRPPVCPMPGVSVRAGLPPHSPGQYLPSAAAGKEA
Protocol: Cells were then incubated for 1 h at 37°C and 5% CO2. Cells were then treated with varying concentrations of inhibitors for 30 min, followed by treatment with calcium ionophore A23187 (3 μM) in 500 μM 3-isobutyl-1-methylxanthine (IBMX), a phosphodiesterase inhibitor, for 1 h at RT (Sigma Aldrich, St. Louis, MO). Finally, Cisbio HTRF detection reagents were added and incubated for 1–24 h at RT. Plates were read according to manufacturer’s protocol on an HTRF-compatible plate reader at 620 and 665 nm cAMP concentrations were interpolated from a cAMP standard curve. […] For cytotoxicity assays, compounds were tested at 30 μM and this protocol was used with the exception of detection reagents; CellTiter-Glo 2.0 reagent was used according to manufacturer’s protocol and luminescence was read on the Synergy Neo2 plate reader. Data are normalized to cells treated with vehicle (100%) or 2% tween (0%) and are represented as the percent of vehicle, from the average of three independent experiments (N = 3).

[2] = Cytotoxicity assay (CellTiter-Glo 2.0) in AC1-HEK Δ3/6 KO cells; format: cell-based; details: human, percent of vehicle, read-out: % Viable Cells at AC1 30 μM
Protocol: (§1) Cryopreserved HEK293 cells with AC3 and AC6 knocked out, and stably expressing AC1, AC2, AC5, or AC8 (AC1-HEK Δ3/6 KO, AC2-HEK Δ3/6 KO, AC5-HEK Δ3/6 KO, or AC8-HEK Δ3/6 KO cells, respectively; [Soto-Velasquez et al., 2018]) were plated at 5,000 cells/well. Cells were then incubated for 1 h at 37°C and 5% CO2. Cells were then treated with varying concentrations of inhibitors for 30 min, followed by treatment with calcium ionophore A23187 (3 μM) in 500 μM 3-isobutyl-1-methylxanthine (IBMX), a phosphodiesterase inhibitor, for 1 h at RT (Sigma Aldrich, St. Louis, MO). Finally, Cisbio HTRF detection reagents were added and incubated for 1–24 h at RT. Plates were read according to manufacturer’s protocol on an HTRF-compatible plate reader at 620 and 665 nm cAMP concentrations were interpolated from a cAMP standard curve. […] For cytotoxicity assays, compounds were tested at 30 μM and this protocol was used with the exception of detection reagents; CellTiter-Glo 2.0 reagent was used according to manufacturer’s protocol and luminescence was read on the Synergy Neo2 plate reader. Data are normalized to cells treated with vehicle (100%) or 2% tween (0%) and are represented as the percent of vehicle, from the average of three independent experiments (N = 3).

AC8 = target: T7, AC8 (Homo sapiens, UniProt P40145); experiment: cAMP accumulation assay, AC8-HEK Δ3/6 KO cells; format: cell-based; details: for IC50: CDI analog SAR set, 3 μM A23187, read-out: IC50 (μM) ± SEM AC8
T7 construct: expressed in transfected cells
T7 sequence (P40145 whole entry, species assumed): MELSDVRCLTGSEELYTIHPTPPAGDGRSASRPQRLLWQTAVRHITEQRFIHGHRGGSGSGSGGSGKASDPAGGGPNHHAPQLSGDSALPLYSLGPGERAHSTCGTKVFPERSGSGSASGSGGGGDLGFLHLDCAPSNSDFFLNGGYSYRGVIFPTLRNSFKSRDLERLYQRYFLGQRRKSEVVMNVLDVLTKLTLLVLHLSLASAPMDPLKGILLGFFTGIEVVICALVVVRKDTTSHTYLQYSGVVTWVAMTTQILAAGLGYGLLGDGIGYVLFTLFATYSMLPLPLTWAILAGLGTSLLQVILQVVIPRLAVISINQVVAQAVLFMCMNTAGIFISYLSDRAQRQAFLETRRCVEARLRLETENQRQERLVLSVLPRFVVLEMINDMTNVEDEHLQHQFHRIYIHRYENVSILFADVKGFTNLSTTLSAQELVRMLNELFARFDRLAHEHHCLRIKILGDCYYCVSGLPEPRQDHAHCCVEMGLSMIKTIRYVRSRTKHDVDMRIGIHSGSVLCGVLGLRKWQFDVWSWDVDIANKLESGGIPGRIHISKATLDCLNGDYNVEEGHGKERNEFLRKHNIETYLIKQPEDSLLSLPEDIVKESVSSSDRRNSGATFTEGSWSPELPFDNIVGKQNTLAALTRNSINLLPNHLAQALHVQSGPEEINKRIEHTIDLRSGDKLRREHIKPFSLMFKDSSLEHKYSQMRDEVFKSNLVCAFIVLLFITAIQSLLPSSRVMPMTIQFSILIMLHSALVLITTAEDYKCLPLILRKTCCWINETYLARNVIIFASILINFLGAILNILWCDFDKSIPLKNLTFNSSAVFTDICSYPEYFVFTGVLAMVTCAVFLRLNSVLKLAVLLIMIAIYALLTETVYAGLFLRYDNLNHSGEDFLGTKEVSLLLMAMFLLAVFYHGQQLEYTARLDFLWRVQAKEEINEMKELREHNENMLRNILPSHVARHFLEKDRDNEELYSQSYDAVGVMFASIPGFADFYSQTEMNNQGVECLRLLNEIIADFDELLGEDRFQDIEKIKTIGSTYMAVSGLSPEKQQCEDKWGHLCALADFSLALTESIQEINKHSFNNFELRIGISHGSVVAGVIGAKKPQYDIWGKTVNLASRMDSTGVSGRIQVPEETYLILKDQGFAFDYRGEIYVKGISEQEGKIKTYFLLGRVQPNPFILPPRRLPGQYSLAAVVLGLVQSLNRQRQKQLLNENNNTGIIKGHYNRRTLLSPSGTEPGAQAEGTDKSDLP
Protocol: as §1

[3] = initial examination, 10,000 cells per well, 3 μM A23187, 1 h RT, read-out: AC1 IC50 ± SEM
[4] = CDI analog SAR set, 3 μM A23187, read-out: IC50 (μM) ± SEM AC1

SMILES	Ki (AC8-C2b/CaM) [µM]	Ki ratio (AC8-C2b/AC1) (AC8-C2b/CaM)	IC50 (AC1/CaM PPI) [µM]	IC50 (AC1-C1b/CaM) [µM]	Ki (AC1-C1b/CaM) [µM]	IC50 (AC8/CaM PPI) [µM]	Ki (AC8-Nt/CaM) [µM]	Ki ratio (AC8 NT/AC1) (AC8-Nt/CaM)	viability at 30 min [1] [%]	AC1-CaM FP % inhib (AC1-C1b/CaM) [%]	IC50 (AC1; [4]) [µM]	viability at 30 min, 30 μM [2] [%]	IC50 (AC8) [µM]	other results
Cc1cc2nc3ccc(N(C)C)cc3[s+]c2cc1N [Compound 1, Tolonium Chloride]	0.44	1.5	32.9 ± 1.01	1.24	0.29	8.4 ± 1.19	2.3	7.9	80	–	–	–	–	decrease in cell viability at AC1/CaM IC50 (HEK293T cells): greater than 10%
CCCCC(CC)CNC(=N)NC(=N)NCCCCCCNC(=N)NC(=N)NCC(CC)CCCC (stereo not drawn) [Compound 3, Alexidine]	2.6	3.9	17.9 ± 1.15	2.8	0.67	16.5 ± 1.15	1.1	1.6	75	103	–	–	–	decrease in cell viability at 100 μM (HEK293T cells; 100 μM): 70%; decrease in cell viability at AC1/CaM IC50 (HEK293T cells): 25%
CC1=C(CCC(=O)O)c2cc3[nH]c(cc4nc(cc5[nH]c(cc1n2)c(C)c5C(C)O)C(C)=C4C(C)O)c(C)c3CCC(=O)O (stereo not drawn) [Compound 6, Hematoporphyrin]	10.1	2.9	38.4 ± 1.17	14.7	3.5	11.6 ± 1.24	61.7	17.8	95	131	–	–	–	fold selective for AC8 over AC1 in the NanoBiT assay (AC8/CaM PPI; AC8/CaM vs AC1/CaM NanoBiT): 2- to 4 fold
CCCCCCCCOc1ccccc1C(=O)Nc1ccc(C(=O)OCC[N+](C)(CC)CC)cc1 [Compound 7, Otilonium]	10.3	2.5	18.8 ± 1.16	17.1	4.1	12.8 ± 1.22	6.3	1.6	96	92	–	–	–	cell viability reduced at highest concentration tested (HEK293T cells; 316 μM): ~50%
CN(C(=O)CN(CCO)CC(=O)N(C)C(C)(C)Cc1ccccc1)C(C)(C)Cc1ccccc1 [Compound 8, Oxetacaine]	33.5	7.1	40 ± 1.15	20	4.7	34.6 ± 1.32	38	8.0	93.3	38	–	–	–	–
CCc1oc2ccccc2c1C(=O)c1cc(Br)c(O)c(Br)c1 [Compound 12, Benzbromarone]	23.8	–	1.7 ± 1.17	33	7.8	4.16 ± 1.15	52.1	–	90	47	–	–	–	inhibition of AC1 activity (efficacy) (AC1; initial characterization of hits, data not shown): ~75%; IC50 (AC1; [3]): 4.09 ± 2.41 µM
CNC(=O)C1=C(Nc2ccc(N(C)C)cc2)c2ccccc2S1(=O)=O [Compound 20]	4.5	0.44	63 ± 1.34	43	10.2	70.3 ± 1.13	5.9	0.58	100	~70	–	–	–	IC50 (AC1; [3]): 66.3 ± 33.3 µM
CCc1cc(C(c2cccs2)N2CCCCC2)c(NC(=O)c2ccco2)s1 (stereo not drawn) [Compound 22]	–	–	–	–	–	–	–	–	–	–	2.48 ± 0.39	97	3.23 ± 0.57	–
Cc1cc(C(c2cccs2)N2CCC(C)CC2)c(NC(=O)c2ccco2)s1 (stereo not drawn) [Compound 23]	–	–	–	–	–	–	–	–	–	–	3.08 ± 0.25	100	4.21 ± 1.01	–
CCc1cc(C(c2cccs2)N2CCN(CC)CC2)c(NC(=O)c2ccco2)s1 (stereo not drawn) [Compound 26]	–	–	–	–	–	–	–	–	–	–	4.39 ± 0.44	61	2.92 ± 1.36	–
CN1CCN(C(c2cccs2)c2c(NC(=O)c3ccco3)sc3c2CCCC3)CC1 (stereo not drawn) [Compound 27]	–	–	–	–	–	–	–	–	–	–	34.8 ± 13	48	25.6 ± 6.77	–
CCN1CCN(C(c2cccs2)c2c(NC(=O)c3ccco3)sc3c2CCCC3)CC1 (stereo not drawn) [Compound 28]	–	–	–	–	–	–	–	–	–	–	20 ± 5.23	88	11.6 ± 1.82	fold more potent at AC8 than AC1 (AC8; cAMP accumulation IC50s): 2 fold
CCc1cc(C(c2ccccc2)N2CCN(C)CC2)c(NC(=O)c2ccco2)s1 (stereo not drawn) [Compound 29]	–	–	–	–	–	–	–	–	–	–	10.3 ± 1.45	65	14.4 ± 4.1	fold reduction in AC1 potency compared to 15 (AC1; matched molecular pair 15): ~2 fold; fold reduction in AC8 potency compared to 15 (AC8; matched molecular pair 15): ~3 fold
Cc1cc(C(c2cccs2)N2CCOCC2)c(NC(=O)c2ccco2)s1 (stereo not drawn) [Compound 30]	–	–	–	–	–	–	–	–	–	–	10.6 ± 2.72	100	4.99 ± 1.1	–
CCc1cc(C(c2cccs2)N2CCOCC2)c(NC(=O)c2ccco2)s1 (stereo not drawn) [Compound 31]	–	–	–	–	–	–	–	–	–	–	5.25 ± 1.07	37	1.49 ± 0.38	–
CCc1cc(C(Nc2ccccn2)c2cccs2)c(NC(=O)c2ccco2)s1 (stereo not drawn) [Compound 33]	–	–	–	–	–	–	–	–	–	–	3.58 ± 2.26	88	2.7 ± 1.92	–
